Measurements from patent US10087191B2, “Piperidine derivative and preparation method and pharmaceutical use thereof” (Jiangsu Hengrui Medicine Co., Ltd., priority 2015, dated 2018).

Tests used:
MCF7 cells = assay: Inhibition of the proliferation of MCF7 cells (Cell Titer-Glo); assay type: cell-based; conditions: Homo sapiens, MCF-7 cells, 72 hours, read-out: IC50 value of inhibition effect on the proliferation of MCF7 cells
Method in brief: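 Viability by Cell Titer-Glo luminescence; IC50 from signal versus log concentration.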

estrogen receptor (ER) = estrogen receptor (ER) (Homo sapiens (Human), UniProt P03372); assay: Inhibition of the binding of estrogen (E) to estrogen receptor (ER), MCF-7/ERE-luciferase reporter cells; assay type: cell-based; conditions: MCF-7/ERE-luciferase cells, 0.1 nM estradiol, 24 hours; read-out: IC50 value of inhibition effect on the binding of E to ER
estrogen receptor (ER), sequence (P03372 whole entry): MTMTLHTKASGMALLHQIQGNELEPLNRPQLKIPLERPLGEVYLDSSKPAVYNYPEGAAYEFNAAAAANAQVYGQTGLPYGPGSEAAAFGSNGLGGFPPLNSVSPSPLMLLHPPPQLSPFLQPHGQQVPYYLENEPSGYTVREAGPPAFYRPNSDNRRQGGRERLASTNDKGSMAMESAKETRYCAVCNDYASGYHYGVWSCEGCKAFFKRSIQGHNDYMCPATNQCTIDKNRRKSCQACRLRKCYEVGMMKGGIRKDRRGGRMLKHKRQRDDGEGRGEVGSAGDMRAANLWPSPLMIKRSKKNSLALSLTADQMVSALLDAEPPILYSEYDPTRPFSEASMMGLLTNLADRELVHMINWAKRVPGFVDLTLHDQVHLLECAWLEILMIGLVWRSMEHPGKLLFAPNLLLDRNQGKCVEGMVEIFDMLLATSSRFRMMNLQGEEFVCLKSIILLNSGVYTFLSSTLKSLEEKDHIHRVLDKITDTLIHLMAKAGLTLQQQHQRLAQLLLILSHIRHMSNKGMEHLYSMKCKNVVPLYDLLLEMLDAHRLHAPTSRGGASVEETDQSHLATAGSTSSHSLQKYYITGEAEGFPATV

[1] = Pharmacokinetics assay in BALB/C nude mice after intragastrical administration; assay type: in vivo; conditions: female, mouse, plasma, po, 3 mg/kg; for AUC: read-out: Area Under Curve AUC; for CL/F: read-out: Clearance CL/F (converted); for half-life: read-out: Half-Life t½ (converted); for MRT: read-out: Mean Residence Time MRT; for Cmax: read-out: Plasma Conc. Cmax
Method: BALB/C nude mice were used as test animals. The drug concentration in plasma at different time points was determined by LC/MS/MS after intragastrical administration of the compounds of Examples 10, 14, 20, 21, 57, 68, 71, 73, 74, 76 and 89 to BALB/C nude mice. The pharmacokinetic behavior of the compounds of the present invention was studied and evaluated in BALB/C nude mice.
Ninety-nine (99) female BALB/C nude mice were equally divided into 11 groups, which were purchased from SINO-BRITSH SIPPR/BK LAB. ANIMAL LTD., CO, with Certificate No.: SCXK (Shanghai) 2008-0016.
The appropriate amount of each test compound was weighed, and successively added with 9% PEG400+0.5% tween 80+0.5% PVP+90% aqueous solution of 0.5% CMC.
After an overnight fast, 99 female BALB/C nude mice were equally divided into 11 groups, and administered the test compounds intragastrically at an administration volume of 0.2 mL/10 g.
Blood (0.1 mL) was sampled (3 mice at each time point) at 0.5, 1.0, 2.0, 4.0, 6.0, 8.0, 11.0 and 24.0 hours after administration. The samples were stored in heparinized test tubes, and centrifuged for 10 minutes at 3,500 rpm to separate the blood plasma. The plasma samples were stored at −20° C. The plasma concentration of the test compounds in BALB/C nude mice after intragastrical administration was determined by LC/MS/MS.
Pharmacokinetic parameters of the compounds of Examples 10, 14, 20, 21, 57, 68, 71, 73, 74, 76 and 89 of the present invention are shown below.

ERα = ERα (Homo sapiens (Human), UniProt P03372); assay: Degradation effect on ERα in MCF-7 cells (ERα Duoset ELISA); assay type: cell-based; conditions: MCF-7 cells; read-out: IC50 value of the degradation effect on ERα
ERα, sequence (P03372 whole entry): as above
Method: In order to determine the degradation effect on ER induced by the compounds of the present invention, the following method was used to determine the degradation effect of the compounds of the present invention on ER.
MCF-7 cell line (TChu 74, Cell Bank of Chinese Academy of Sciences typical culture preservation Committee)
ERα Duoset Kit (#DYC5715E, R&D System)
MCF-7 cells were incubated in DMEM/F-12 medium containing 10% FBS.
On the first day of the experiment, MCF-7 cells were resuspended in DMEM/F-12 medium containing 10% FBS treated by activated carbon, then inoculated into a 48-well plate with a density of 50,000 cells/well and incubated for 22-24 hours.
On the second day of the experiment, the test compound was diluted with medium and added to a 48-well plate. The ERα-capture antibody was diluted to 1 μg/ml with PBS, and added to a 96-well plate at 100 μl/well. The plate was sealed and coated overnight at room temperature.
On the third day of the experiment, the coated 96-well plate was washed twice with PBS, added with a sealing solution (1% BSA in PBS) at 110 μl/well and sealed for 1 hour at room temperature. The 48-well plate was washed once with PBS, and the residual liquid was removed. Then, 60 μl of lysis (6 M urea, 1 mM EDTA, 0.5% Triton X-100, 1 mM PMSF, Protease Inhibitor cocktail) was added to each well. After lysis on ice for 15 minutes, the diluent (1 mM EDTA, 0.5% TritonX-100 dissolved in PBS) was added. The cell-diluted lysate was transferred to a 96-well plate at 100 μl/well, then the plate was incubated at room temperature for 2 hours. The diluted primary antibody was added after the plate was washed 4 times with a washing liquid (PBST). After incubation for 1 hour, the 96-well plate was washed 4 times, and the second antibody was added, then the plate was incubated for 30 minutes. After the plate was washed with a washing liquid, TMB chromogenic solution was added and incubated for 15 minutes. The reaction was stopped by the addition of 1 M H2SO4, then the light absorption at 450 nm was read.

| SMILES | IC50 (MCF7 cells) [nM] | IC50 (estrogen receptor (ER)) [nM] | AUC [1] [ng·h/mL] | CL/F [1] [mL/min/kg] | half-life [1] [h] | MRT [1] [h] | Cmax [1] [ng/mL] | DC50 (ERα) [nM] |
| --- | --- | --- | --- | --- | --- | --- | --- | --- |
| C[C@@H]1Cc2cc(-c3cnn(C(F)F)c3)ccc2[C@@H](c2c(F)cc(/C=C/C(=O)O)cc2F)N1CC(C)(C)F [Example 14, (E)-3-(4-((1S,3R)-6-(1-(difluoromethyl)-1H-pyrazol-4-yl)-2-(2-fluoro-2-methylpropyl)-3-methyl-1,2,3,4-tetrahydroisoquinolin-1-yl)-3,5-difluorophenyl)acrylic acid] | 0.06 | 0.29 | 32700 | 25.5 | 4.74 | 5.93 | 6750 | 0.64 |
| C[C@@H]1Cc2cc(-c3cnn(C)c3)ccc2[C@@H](c2c(F)cc(/C=C/C(=O)O)cc2F)N1CC(C)(C)F [Example 57, (E)-3-(3,5-difluoro-4-((1S,3R)-2-(2-fluoro-2-methylpropyl)-3-methyl-6-(1-methyl-1H-pyrazol-4-yl)-1,2,3,4-tetrahydroisoquinolin-1-yl)phenyl)acrylic acid] | 0.01 | 0.33 | 15100 | 55.2 | 2.78 | 3.23 | 5070 | 0.1 |
| CC1Cc2cc(-c3cnn(C4CC4)c3)ccc2C(c2c(F)cc(/C=C/C(=O)O)cc2F)N1CC(C)(C)F [Example 58, (E)-3-(4-((1S,3R/1R,3S)-6-(1-cyclopropyl-1H-pyrazol-4-yl)-2-(2-fluoro-2-methylpropyl)-3-methyl-1,2,3,4-tetrahydroisoquinolin-1-yl)-3,5-difluorophenyl)acrylic acid] | 1.35 | 0.84 | – | – | – | – | – | 1.79 |
| CC1Cc2cc(-c3ccccc3)ccc2C(c2c(F)cc(/C=C/C(=O)O)cc2F)N1CC(C)(C)F [Example 59, (E)-3-(3,5-difluoro-4-((1S,3R/1R,3S)-2-(2-fluoro-2-methylpropyl)-3-methyl-6-phenyl-1,2,3,4-tetrahydroisoquinolin-1-yl)phenyl)acrylic acid] | 1.29 | 5.56 | – | – | – | – | – | 6.25 |
| CC1Cc2cc(-c3ccc(N4CCOCC4)cc3)ccc2C(c2c(F)cc(/C=C/C(=O)O)cc2F)N1CC(C)(C)F [Example 60, (E)-3-(3,5-difluoro-4-((1S,3R/1R,3S)-2-(2-fluoro-2-methylpropyl)-3-methyl-6-(4-morpholinophenyl)-1,2,3,4-tetrahydroisoquinolin-1-yl)phenyl)acrylic acid] | 2.1 | 7.12 | – | – | – | – | – | 7.35 |
| C[C@@H]1Cc2cc(-c3ccc4ncccc4c3)ccc2[C@@H](c2c(F)cc(/C=C/C(=O)O)cc2F)N1CC(C)(C)F [Example 64, (E)-3-(3,5-difluoro-4-((1S,3R)-2-(2-fluoro-2-methylpropyl)-3-methyl-6-(quinolin-6-yl)-1,2,3,4-tetrahydroisoquinolin-1-yl)phenyl)acrylic acid] | 0.22 | 1.07 | – | – | – | – | – | 4.72 |
| CC1Cc2cc(-c3ccc4[nH]ncc4c3)ccc2C(c2c(F)cc(/C=C/C(=O)O)cc2F)N1CC(C)(C)F [Example 67, (E)-3-(3,5-difluoro-4-((1S,3R/1R,3S)-2-(2-fluoro-2-methylpropyl)-6-(1H-indazol-5-yl)-3-methyl-1,2,3,4-tetrahydroisoquinolin-1-yl)phenyl)acrylic acid] | 0.07 | 5.48 | – | – | – | – | – | 6.69 |
| C[C@@H]1Cc2c(oc3ccccc23)[C@@H](c2c(F)cc(/C=C/C(=O)O)cc2F)N1CC(C)(C)F [Example 68, (E)-3-(3,5-difluoro-4-((1R,3R)-2-(2-fluoro-2-methylpropyl)-3-methyl-1,2,3,4-tetrahydrobenzofuro[2,3-c]pyridin-1-yl)phenyl)acrylic acid] | 0.04 | 0.31 | 13200 | 105 | 2.32 | 3.7 | 3420 | 0.11 |
| C[C@@H]1Cc2cc3c(cc2[C@@H](c2c(F)cc(/C=C/C(=O)O)cc2F)N1CC(C)(C)F)OCO3 [Example 71, (E)-3-(3,5-difluoro-4-((5S,7R)-6-(2-fluoro-2-methylpropyl)-7-methyl-5,6,7,8-tetrahydro-[1,3]dioxolo[4,5-g]isoquinolin-5-yl)phenyl)acrylic acid] | 0.12 | 0.74 | 8810 | 158 | 1.59 | 2.62 | 4130 | 0.06 |
| CC1Cc2cc3ocnc3cc2C(c2c(F)cc(/C=C/C(=O)O)cc2F)N1CC(C)(C)F [Example 81, (E)-3-(3,5-difluoro-4-((5S,7R/5R,7S)-6-(2-fluoro-2-methylpropyl)-7-methyl-5,6,7,8-tetrahydrooxazolo[5,4-g]isoquinolin-5-yl)phenyl)acrylic acid] | 3.4 | 4.06 | – | – | – | – | – | 1.62 |
| CC1Cc2c(oc3cc(F)ccc23)C(c2c(F)cc(/C=C/C(=O)O)cc2F)N1CC(C)(C)F [Example 86, (E)-3-(3,5-difluoro-4-((1R,3R/1S,3S)-7-fluoro-2-(2-fluoro-2-methylpropyl)-3-methyl-1,2,3,4-tetrahydrobenzofuro[2,3-c]pyridin-1-yl)phenyl)acrylic acid] | 0.64 | 4.47 | – | – | – | – | – | 7.13 |
| CC1Cc2c(oc3ccc(-c4cn[nH]c4)cc23)C(c2c(F)cc(/C=C/C(=O)O)cc2F)N1CC(C)(C)F [Example 88, (E)-3-(3,5-difluoro-4-((1R,3R/1S,3S)-2-(2-fluoro-2-methylpropyl)-3-methyl-6-(1H-pyrazol-4-yl)-1,2,3,4-tetrahydrobenzofuro[2,3-c]pyridin-1-yl)phenyl)acrylic acid] | 0.67 | 1.22 | – | – | – | – | – | 1.61 |
| CC1Cc2cc3[nH]ncc3cc2C(c2c(F)cc(/C=C/C(=O)O)cc2F)N1CC(C)(C)F [Example 91, (E)-3-(3,5-difluoro-4-((5S,7R/5R,7S)-6-(2-fluoro-2-methylpropyl)-7-methyl-5,6,7,8-tetrahydro-1H-pyrazolo[3,4-g]isoquinolin-5-yl)phenyl)acrylic acid] | 0.83 | 1.88 | – | – | – | – | – | 2.33 |
| C[C@@H]1Cc2c(ccc3[nH]ncc23)[C@@H](c2c(F)cc(/C=C/C(=O)O)cc2F)N1CC(C)(C)F [Example 94, (E)-3-(3,5-difluoro-4-((6S,8R)-7-(2-fluoro-2-methylpropyl)-8-methyl-6,7,8,9-tetrahydro-3H-pyrazolo[4,3-f]isoquinolin-6-yl)phenyl)acrylic acid] | 0.03 | 0.04 | – | – | – | – | – | 0.02 |
| CCn1cc(-c2ccc3oc4c(c3c2)C[C@@H](C)N(CC(C)(C)F)[C@@H]4c2c(F)cc(/C=C/C(=O)O)cc2F)cn1 [Example 97, (E)-3-(4-((1R,3R)-6-(1-ethyl-1H-pyrazol-4-yl)-2-(2-fluoro-2-methylpropyl)-3-methyl-1,2,3,4-tetrahydrobenzofuro[2,3-c]pyridin-1-yl)-3,5-difluorophenyl)acrylic acid] | 0.2 | 0.24 | – | – | – | – | – | 6.11 |
